This passage reports IC50 results from patent US11873291B2, “Quinoline cGAS antagonist compounds” (ImmuneSensor Therapeutics, Inc., priority 2020, dated 2024).

A value given as a limit tells only on which side of the number the result lay.

For experiment [1], the system named is cGAS activity in Reporter THP1 cell line. Put plainly: Cellular assay to measure cGAS activity: ISRE-Gaussia luciferase reporter THP1 cells transfected with ISD. It is filed as cell-based. As to conditions: Homo sapiens, THP-1, untitled table after Table 4 (continuation). The method, boiled down: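 THP1 ISRE-Gaussia luciferase reporter cells (0.3×10^6/well) pre-incubated 5 min with compound serial dilutions, then lipofectamine-transfected with 2 μg/mL ISD (45 bp DNA) or mock. Secreted luciferase read 16 h later with 1 μM coelenterazine at pH 6.5; IC50 from fold increase over mock. Specificity counter-screen used 2 μg/mL poly(I:C) or Sendai virus 50 Unit/mL.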
On the technique in general: A reporter such as luciferase makes a cellular process visible.

The target in experiment [2] is T1, recombinant human cGAS (aa147-522) (Homo sapiens, UniProt Q8N884).
T1 construct: recombinant human cGAS (aa147-522); His6-SUMO (cleaved yes); made in house; host or cells: E. coli BL21/pLys
T1 sequence (Q8N884 147-522): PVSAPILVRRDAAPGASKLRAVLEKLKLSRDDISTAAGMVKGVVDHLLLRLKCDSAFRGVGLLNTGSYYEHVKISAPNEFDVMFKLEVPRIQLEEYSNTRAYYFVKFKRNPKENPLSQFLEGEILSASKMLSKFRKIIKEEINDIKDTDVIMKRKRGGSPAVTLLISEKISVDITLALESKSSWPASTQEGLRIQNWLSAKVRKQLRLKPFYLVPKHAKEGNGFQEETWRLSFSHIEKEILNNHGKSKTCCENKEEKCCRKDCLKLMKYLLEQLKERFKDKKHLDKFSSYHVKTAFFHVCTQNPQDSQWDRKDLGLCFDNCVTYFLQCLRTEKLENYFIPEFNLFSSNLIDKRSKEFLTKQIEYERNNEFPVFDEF
Put plainly: In vitro inhibition assay of cGAS activity (ATP consumption, KinaseGlo Max). It is filed as biochemical. As to conditions: Table 3, read-out: cGAS Inhibition Results IC50. The method, boiled down: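 De-tagged recombinant human cGAS (aa147-522, 1.5 μg/mL) was incubated 20 min at 37 °C with herring testis DNA, 6.6 μM ATP and 0.1 mM GTP in Tris pH 7.5/MgCl2 buffer plus serial compound dilutions. Remaining ATP was read by KinaseGlo Max luminescence, and IC50 was fitted from % ATP consumption versus log concentration.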
In general terms: Kinase-Glo reads ATP consumption through a luciferase reaction.

Regarding `O=C(O)CCOCC1COCCN(c2cc(-n3ccnc3)c3ccc(Cl)c(Cl)c3n2)C1` (stereo not shown) [I-868], the IC50 is 2 to 10 µM in experiment [1] and < 2 µM in experiment [2].

For `COC(=O)[C@@H]1[C@@H](O)CCN1c1cc(-n2ccnc2)c2ccc(Cl)c(Br)c2n1` [I-872], the IC50 was < 2 µM in experiment [1] and 2 to 30 µM in experiment [2].

Regarding `COc1cc(Cl)c2nc(N3CCC[C@H]3COCCC(=O)O)cc(-n3ccnc3)c2c1` [I-875], the IC50 in experiment [1] and in experiment [2] was < 2 µM throughout.

Turning to `O=C(O)CCOC[C@@H]1CCCN1c1cc(-n2ccnc2)c2cc(Cl)c(Cl)c(Cl)c2n1` [I-876], the IC50 in experiment [1] and in experiment [2] was < 2 µM in each case.

With `Cc1ccc(-c2cc(-n3ccnc3)c3ccc(Cl)c(Cl)c3n2)cc1COCCC(=O)O` [I-877], the IC50 in experiment [1] and in experiment [2] was < 2 µM throughout.

For the compound `O=C(O)CCOCc1ccc(Cl)c(-c2cc(-n3ccnc3)c3ccc(Cl)c(Cl)c3n2)c1` [I-878], the IC50 in experiment [1] and in experiment [2] was < 2 µM in each case.

Take `O=C(O)CCOCc1cc(Cl)cc(-c2cc(-n3ccnc3)c3ccc(Cl)c(Cl)c3n2)c1` [I-879]: the IC50 in experiment [1] and in experiment [2] was < 2 µM in each case.

`CC(OCCC(=O)O)c1cccc(-c2cc(-n3ccnc3)c3ccc(Cl)c(Cl)c3n2)c1` (stereo not shown) [I-880]: the IC50 in experiment [1] is 2 to 10 µM; in experiment [2] it was < 2 µM.

Take `O=C(O)c1noc(CCNc2cc(-n3ccnc3)c3ccc(Cl)c(Cl)c3n2)n1` [I-882]: the IC50 in experiment [1] is > 10 µM; in experiment [2], < 2 µM.

For `O=C(O)CCc1cccc(Nc2cc(-n3ccnc3)c3ccc(Cl)c(Cl)c3n2)c1` [I-883], the IC50 in experiment [1] is 2 to 10 µM; in experiment [2], < 2 µM.

Take `COc1ccc(-c2cc(-n3ccnc3)c3ccc(Cl)c(Cl)c3n2)cc1COCCC(=O)O` [I-884]: the IC50 in experiment [1] and in experiment [2] was < 2 µM each time.

For the compound `O=C(O)c1ccccc1OCCNc1cc(-n2ccnc2)c2ccc(Cl)c(Cl)c2n1` [I-886], the IC50 in experiment [1] and in experiment [2] was < 2 µM throughout.

Consider `O=C(O)c1cccc(CNc2cc(-n3ccnc3)c3ccc(Cl)c(Cl)c3n2)c1` [I-887], for which the IC50 is 2 to 10 µM in experiment [1] and < 2 µM in experiment [2].

Turning to `O=C(O)Cc1ccccc1CNc1cc(-n2ccnc2)c2ccc(Cl)c(Cl)c2n1` [I-888], the IC50 was 2 to 10 µM in experiment [1] and < 2 µM in experiment [2].

With `O=C(O)c1cnn(CCNc2cc(-n3ccnc3)c3ccc(Cl)c(Cl)c3n2)c1` [I-889], the IC50 was > 10 µM in experiment [1] and < 2 µM in experiment [2].

`COC(=O)Cc1cc(F)cc(CNc2cc(-n3ccnc3)c3ccc(Cl)c(Cl)c3n2)c1` [I-890, methyl 2-(3-(((7,8-dichloro-4-(1H-imidazol-1-yl)quinolin-2-yl)amino)methyl)-5-fluorophenyl)acetate]: the IC50 in experiment [1] is < 2 µM; in experiment [2], 2 to 30 µM.

Take `O=C(O)Cc1cc(F)cc(CNc2cc(-n3ccnc3)c3ccc(Cl)c(Cl)c3n2)c1` [I-891, 2-(3-(((7,8-dichloro-4-(1H-imidazol-1-yl)quinolin-2-yl)amino)methyl)-5-fluorophenyl)acetic acid]: the IC50 in experiment [1] and in experiment [2] was < 2 µM each time.

Broadly, the IC50 is the concentration at which inhibition is half-maximal.
